# Experimental data: patent publication EP2158208B1, “PROCESS FOR PREPARING AN A2A-ADENOSINE RECEPTOR AGONIST AND ITS POLYMORPHS” (Gilead Sciences, Inc., priority 2007, dated 2008)
# Experiments:
# [1] = stability of polymorphs under relative humidity stress / atmospheric moisture; type: physicochemical; conditions: for stability under relative humidity stress conditions: up to melting point, monohydrate
# Description: Moisture sorption/desorption data were collected on a VTI SGA-100 Vapor Sorption Analyzer. Sorption and desorption data were collected over a range of 5% to 95% relative humidity […] at 10% RH intervals under a nitrogen purge. Sodium chloride (NaCl) and polyvinylpyrrolidone (PVP) were used as the calibration standards. Equilibrium criteria used for analysis were less than 0.0100% weight change in 5 minutes, with a maximum equilibration time of 180 minutes if the weight criterion was not met. The plotted data have not been corrected for the initial moisture content.
# [2] = stability of polymorphs with temperature (thermal analyses); type: physicochemical; conditions: for relative stability among the polymorphs: at ambient temperatures, monohydrate
# Description: Thermogravimetric (TG) analyses were carried out on a TA Instruments 2050 or 2950 thermogravimetric analyzer. The calibration standards were nickel and Alumel™. Samples were placed in an aluminum sample pan, inserted into the TG furnace, and accurately weighed. The samples were heated in nitrogen at a rate of 10°C/min to either 300 or 350° C. Unless stated otherwise, samples weights were equilibrated at 25°C in the TGA furnace prior to analysis.
# Differential scanning calorimetry (DSC) analyses were carried out on a TA Instruments differential scanning calorimeter 2920. Accurately weighed samples were placed in either crimped pans or hermetically sealed pans that contained a pinhole to allow for pressure release. Each sample was heated under nitrogen at a rate of 10°C/min to either 300 or 350°C. Indium metal was used as the calibration standard. Temperatures were reported at the transition maxima.
# A2A-adenosine receptor = A2A-adenosine receptor (Homo sapiens, UniProt P29274); conditions: disclosed in U.S. Patent No. 6,403,567; cited from earlier work
# Sequence of A2A-adenosine receptor (P29274 whole entry): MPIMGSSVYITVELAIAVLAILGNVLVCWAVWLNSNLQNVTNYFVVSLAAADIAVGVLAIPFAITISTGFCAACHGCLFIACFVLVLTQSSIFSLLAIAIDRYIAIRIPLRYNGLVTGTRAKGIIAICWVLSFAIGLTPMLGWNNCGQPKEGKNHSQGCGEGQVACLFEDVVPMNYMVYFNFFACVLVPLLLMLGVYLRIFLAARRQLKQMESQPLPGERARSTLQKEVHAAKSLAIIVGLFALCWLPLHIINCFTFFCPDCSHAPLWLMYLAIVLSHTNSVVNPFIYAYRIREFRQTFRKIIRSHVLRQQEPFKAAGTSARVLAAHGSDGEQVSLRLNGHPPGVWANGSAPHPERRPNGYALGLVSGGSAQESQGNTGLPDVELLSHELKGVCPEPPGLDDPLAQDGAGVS
# [3] = in humans; cited from earlier work
structure (smiles),measurement,setting,value
"CNC(=O)c1cnn(-c2nc(N)c3ncn([C@@H]4O[C@H](CO)[C@@H](O)[C@H]4O)c3n2)c1.O [Form A, (1-{9-[(4S,2R,3R,5R)-3,4-dihydroxy-5-(hydroxymethyl)oxolan-2-yl]-6-aminopurin-2-yl}pyrazol-4-yl)-N-methylcarboxamide monohydrate]",stability under relative humidity stress conditions,[1]; listed as monohydrate,"stable under relative humidity stress conditions, up to its melting point"
same,stability under relative humidity stress conditions,[1],stable under relative humidity stress conditions up to its melting point
same,relative stability among the polymorphs,[2]; listed as monohydrate,most stable
same,relative stability among the polymorphs,[2],most stable of the various polymorphs at ambient temperatures
"CNC(=O)c1cnn(-c2nc(N)c3ncn([C@@H]4O[C@H](CO)[C@@H](O)[C@H]4O)c3n2)c1 [(1-{9-[(4S,2R,3R,5R)-3,4-dihydroxy-5-(hydroxymethyl)oxolan-2-yl]-6-aminopurin-2-yl}pyrazol-4-yl)-N-methylcarboxamide]",selectivity as A2A-adenosine receptor agonist,A2A-adenosine receptor,highly selective
Nc1ncnc2c1ncn2[C@@H]1O[C@H](CO)[C@@H](O)[C@H]1O [Adenosine],half life,[3],less than 10 seconds
"CNC(=O)c1cnn(-c2nc(N)c3ncn([C@@H]4O[C@H](CO)[C@@H](O)[C@H]4O)c3n2)c1 [Amorphous Material, (1-{9-[(4S,2R,3R,5R)-3,4-dihydroxy-5-(hydroxymethyl)oxolan-2-yl]-6-aminopurin-2-yl}pyrazol-4-yl)-N-methylcarboxamide]",stability in the presence of atmospheric moisture,[1]; atmospheric moisture,unstable in the presence of atmospheric moisture
"CNC(=O)c1cnn(-c2nc(N)c3ncn([C@@H]4O[C@H](CO)[C@@H](O)[C@H]4O)c3n2)c1 [Form C, (1-{9-[(4S,2R,3R,5R)-3,4-dihydroxy-5-(hydroxymethyl)oxolan-2-yl]-6-aminopurin-2-yl}pyrazol-4-yl)-N-methylcarboxamide]",stability at elevated temperatures,[2]; elevated temperatures,desolvates to an unstable form
